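Following 48 hours of exposure in 96-well plates, responses at five concentrations were used to interpolate endpoints linearly. Here, GI50 denotes the concentration required for 50% inhibition of growth.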 Activity calls are given as the source filed them. Rule as the data show it: active = GI50 up to about 1.1 µM and inactive = higher.
Assays:
Test in all cases: growth of human tumour cells (NCI), 48 h
UACC-62 = tested on: UACC-62
PC-3 = tested on: PC-3
HOP-92 = tested on: HOP-92
SK-MEL-2 = tested on: SK-MEL-2
HL-60 = tested on: HL-60
EKVX = tested on: EKVX
SR = tested on: SR
A498 = tested on: A498
MDA-MB-231 = tested on: MDA-MB-231
COLO 205 = tested on: COLO 205
K562 = tested on: K562
UACC-257 = tested on: UACC-257
NCI-H23 = tested on: NCI-H23
M14 = tested on: M14
OVCAR-8 = tested on: OVCAR-8
SW-620 = tested on: SW-620
RPMI-8226 = tested on: RPMI-8226
SNB-75 = tested on: SNB-75
NCI-H460 = tested on: NCI-H460
U-251 = tested on: U-251
SN12C = tested on: SN12C
HOP-62 = tested on: HOP-62
MCF7 = tested on: MCF7
ACHN = tested on: ACHN
SK-MEL-28 = tested on: SK-MEL-28
TK-10 = tested on: TK-10
786-0 = tested on: 786-0
A549 = tested on: A549
OVCAR-5 = tested on: OVCAR-5
CCRF-CEM = tested on: CCRF-CEM
UO-31 = tested on: UO-31
HCT-15 = tested on: HCT-15
KM12 = tested on: KM12
HCC 2998 = tested on: HCC 2998
HCT-116 = tested on: HCT-116
RXF 393 = tested on: RXF 393
IGROV-1 = tested on: IGROV-1
SK-MEL-5 = tested on: SK-MEL-5
HT-29 = tested on: HT-29
Malme-3M = tested on: Malme-3M
NCI-H226 = tested on: NCI-H226
BT-549 = tested on: BT-549
Hs-578T = tested on: Hs-578T
SNB-19 = tested on: SNB-19
MOLT-4 = tested on: MOLT-4
MDA-N = tested on: MDA-N

Q: Which GI50 (UACC-62) does the source give for `CCOC(=O)CCC(NC(=O)OCc1ccccc1)C(=O)NC(CCC(=O)OCC)C(=O)NC(CCC(=O)OCC)C(=O)NNC(=O)OC(C)(C)C` (stereo unspecified) here?
A: The GI50 was > 100 µM (inactive).

Q: What about the GI50 (PC-3) of the same compound?
A: The GI50 was > 100 µM (inactive).

Q: And the GI50 (HOP-92)?
A: Its GI50 is > 100 µM (inactive).

Q: What about the GI50 (SK-MEL-2) of the same compound?
A: The GI50 was > 100 µM (inactive).

Q: What about the GI50 (HL-60) of the same compound?
A: Its GI50 is > 100 µM (inactive).

Q: What about the GI50 (EKVX) of the same compound?
A: The GI50 was > 100 µM (inactive).

Q: And the GI50 (SR)?
A: Its GI50 is > 100 µM (inactive).

Q: What about the GI50 (A498) of the same compound?
A: The GI50 was > 100 µM (inactive).

Q: What about the GI50 (MDA-MB-231) of the same compound?
A: The GI50 was > 100 µM (inactive).

Q: What about the GI50 (COLO 205) of the same compound?
A: Its GI50 is > 100 µM (inactive).

Q: What about the GI50 (K562) of the same compound?
A: Its GI50 is > 100 µM (inactive).

Q: And the GI50 (UACC-257)?
A: The GI50 was > 100 µM (inactive).

Q: What about the GI50 (NCI-H23) of the same compound?
A: Its GI50 is > 100 µM (inactive).

Q: And the GI50 (M14)?
A: The GI50 was > 100 µM (inactive).

Q: What about the GI50 (OVCAR-8) of the same compound?
A: The GI50 was > 100 µM (inactive).

Q: And the GI50 (SW-620)?
A: Its GI50 is > 100 µM (inactive).

Q: And the GI50 (RPMI-8226)?
A: Its GI50 is > 100 µM (inactive).

Q: And the GI50 (SNB-75)?
A: Its GI50 is > 100 µM (inactive).

Q: What about the GI50 (NCI-H460) of the same compound?
A: The GI50 was > 100 µM (inactive).

Q: What about the GI50 (U-251) of the same compound?
A: Its GI50 is > 100 µM (inactive).

Q: And the GI50 (SN12C)?
A: Its GI50 is > 100 µM (inactive).

Q: And the GI50 (HOP-62)?
A: Its GI50 is > 100 µM (inactive).

Q: What about the GI50 (MCF7) of the same compound?
A: The GI50 was > 100 µM (inactive).

Q: And the GI50 (ACHN)?
A: Its GI50 is > 100 µM (inactive).

Q: And the GI50 (SK-MEL-28)?
A: The GI50 was > 100 µM (inactive).

Q: And the GI50 (TK-10)?
A: Its GI50 is > 100 µM (inactive).

Q: And the GI50 (786-0)?
A: The GI50 was > 100 µM (inactive).

Q: What about the GI50 (A549) of the same compound?
A: Its GI50 is > 100 µM (inactive).

Q: What about the GI50 (OVCAR-5) of the same compound?
A: Its GI50 is > 100 µM (inactive).

Q: And the GI50 (CCRF-CEM)?
A: The GI50 was 49 µM (inactive).

Q: And the GI50 (UO-31)?
A: Its GI50 is > 100 µM (inactive).

Q: What about the GI50 (HCT-15) of the same compound?
A: The GI50 was > 100 µM.

Q: And the GI50 (KM12)?
A: The GI50 was > 10 µM (inactive).

Q: And the GI50 (HCC 2998)?
A: The GI50 was > 100 µM (inactive).

Q: And the GI50 (HCT-116)?
A: Its GI50 is > 100 µM (inactive).

Q: And the GI50 (RXF 393)?
A: Its GI50 is > 100 µM (inactive).

Q: What about the GI50 (IGROV-1) of the same compound?
A: Its GI50 is > 100 µM (inactive).

Q: What about the GI50 (SK-MEL-5) of the same compound?
A: Its GI50 is > 100 µM (inactive).

Q: What about the GI50 (HT-29) of the same compound?
A: The GI50 was > 100 µM (inactive).

Q: And the GI50 (Malme-3M)?
A: The GI50 was > 100 µM (inactive).

Q: And the GI50 (NCI-H226)?
A: Its GI50 is > 100 µM (inactive).

Q: And the GI50 (BT-549)?
A: The GI50 was > 100 µM (inactive).

Q: What about the GI50 (Hs-578T) of the same compound?
A: The GI50 was > 100 µM (inactive).

Q: What about the GI50 (SNB-19) of the same compound?
A: Its GI50 is > 100 µM (inactive).

Q: What about the GI50 (MOLT-4) of the same compound?
A: The GI50 was > 100 µM (inactive).

Q: And the GI50 (MDA-N)?
A: Its GI50 is > 100 µM (inactive).
